Laboratory results published in patent US11535632B2, “Solid forms of an S1P-receptor modulator” (ESCAPE Bio, Inc., priority 2019, dated 2022).
“Also recorded” adds a separate entry of the source.

Tests used:
Format in all cases: physicochemical
[1] = Room temperature equilibrium solubility in aqueous suspensions; conditions: listed as Compound 1, Form B; for Total drug in solution: room temperature equilibrium, HPLC of supernatant
[2] = Storage for one week at controlled temperature/humidity, XRPD
Method: PLM images obtained of the particles show them to be a mixture of laths and larger aggregates typical of an uncontrolled antisolvent crystallization. A peak corresponding to 0.16 molar equivalents of acetic acid is present in the ^1H-NMR spectrum. […] It is evident from the corresponding DSC thermogram that this mass loss coincides with melting of the material (endotherm at 237.7° C.).

[3] = Hygroscopicity evaluation by DVS at 25° C.
Method: Hygroscopicity of Compound 1, Form A and Compound 1, Form B was evaluated by DVS at 25° C.

[4] = Variable temperature XRPD; conditions: heated in situ to 150° C. at 10° C./min; new form denoted Form E
Method: For variable temperature (VT-XRPD) experiments the samples were prepared and analysed in an Anton Paar chromed sample holder with silicon wafer insert. A heating/cooling rate of 10° C./min was used with a 2 min isothermal hold before the measurement started. The measurement parameters are as per the standard screening data collection method (detailed above). Measurements were taken at the following temperatures: 25° C., 150° C. and 25° C.
Compound 1 Form B was analyzed using the Empyrean XRPD at a temperature of 25° C. The sample was then heated in situ using the variable temperature stage to 150° C. at a ramp rate of 10° C./min and held isothermally for 2 minutes whereupon a second XRPD measurement was made. The sample was then cooled to 25° C. at a ramp rate of 10° C./min held isothermally for 2 minutes whereupon a third XRPD measurement was made.

[5] = Solid state stability study
Source text: The two lots of Compound 1 were characterized by HPLC, PLM, XRPD, DSC, TGA, and KF. […] According to the stability study at different conditions, the two forms of compound were practically stable at different humidity for at least 4 weeks, with no XRPD pattern change and no growth of impurities were found.

Water activity study = experiment: Water activity study
Method: About 15 mg of Form A and 15 mg of Form B were added to the saturated solutions of different water activities and equilibrated at 25° C. and 50° C. for 4 days, respectively. The resulting suspensions were filtered, and the solid parts (wet cake) were investigated by XRPD to determine the polymorph.
According to XRPD results, Form B was obtained in methanol/water with water activity (a.w.) ranging from 0.1 to 0.9 at 25° C., as shown in FIGS. 20A-20B. At 50° C., Form B was obtained in methanol/water with a.w. ≥0.2, whereas a mixture of Form A and Form B was obtained in a.w. […] The water activity of the binary solvent system was calculated based on UNIFAC method (UNIQUAC Functional-group Activity Coefficients).

[6] = Competitive slurries of Form B and C in process relevant solvents
Method: Determination of the relative stabilities of Form B and Form C was undertaken to identify which material was more thermodynamically stable in process relevant solvents. As a suspected solvate was isolated from experiments where DMAC was used as a solvent, only DMSO and acetic acid were determined to be appropriate process solvents. Combinations of these solvents with relevant antisolvents were therefore selected for the competitive slurry experiments.
Compound 1 (from Example 2) was dispensed into HPLC vials. To these, 1 ml of selected solvents was subsequently added to give a suspension. Materials were slurried for 72 hours at 90° C., 50° C. or 25° C. with 500 rpm stirring. Material was subsequently isolated by centrifugation and analyzed by XRPD.

Total drug in solution ([1]; 0.2% HPMC aqueous suspension): <1 µg/mL
pH ([1]; 0.2% HPMC aqueous suspension): 6.7
Total drug in solution ([1]; 0.25% SLS aqueous suspension): 7.8 µg/mL
pH ([1]; 0.25% SLS aqueous suspension): 6.0
Total drug in solution ([1]; 20% HP-BCD aqueous suspension): 74.2 µg/mL
pH ([1]; 20% HP-BCD aqueous suspension): 6.1
DVS Desorp. (%) ([3]; 0% RH, 1st Desorp.): 0.01%
DVS Sorp. (%) ([3]; 0% RH, 2nd Sorp.): 0.01%
DVS Desorp. (%) ([3]; 10% RH, 1st Desorp.): 0.95%
DVS Sorp. (%) ([3]; 10% RH, 2nd Sorp.): 0.65%
DVS Desorp. (%) ([3]; 20% RH, 1st Desorp.): 1.03%
DVS Sorp. (%) ([3]; 20% RH, 2nd Sorp.): 0.96%
DVS Desorp. (%) ([3]; 30% RH, 1st Desorp.): 1.08%
DVS Sorp. (%) ([3]; 30% RH, 2nd Sorp.): 1.00%
DVS Desorp. (%) ([3]; 40% RH, 1st Desorp.): 1.14%
DVS Sorp. (%) ([3]; 40% RH, 1st Sorp.): 1.09%
DVS Desorp. (%) ([3]; 40% RH, 2nd Desorp.): 1.06%
DVS Sorp. (%) ([3]; 40% RH, 2nd Sorp.): 1.03%
DVS Desorp. (%) ([3]; 50% RH, 1st Desorp.): 1.18%
DVS Sorp. (%) ([3]; 50% RH, 1st Sorp.): 1.10%
DVS Desorp. (%) ([3]; 50% RH, 2nd Desorp.): 1.11%
DVS Sorp. (%) ([3]; 50% RH, 2nd Sorp.): 1.06%
DVS Desorp. (%) ([3]; 60% RH, 1st Desorp.): 1.21%
DVS Sorp. (%) ([3]; 60% RH, 1st Sorp.): 1.14%
DVS Desorp. (%) ([3]; 60% RH, 2nd Desorp.): 1.10%
DVS Sorp. (%) ([3]; 60% RH, 2nd Sorp.): 1.09%
DVS Desorp. (%) ([3]; 70% RH, 1st Desorp.): 1.26%
DVS Sorp. (%) ([3]; 70% RH, 1st Sorp.): 1.18%
DVS Desorp. (%) ([3]; 70% RH, 2nd Desorp.): 1.13%
DVS Sorp. (%) ([3]; 70% RH, 2nd Sorp.): 1.12%
DVS Desorp. (%) ([3]; 80% RH, 1st Desorp.): 1.28%
DVS Sorp. (%) ([3]; 80% RH, 1st Sorp.): 1.22%
DVS Desorp. (%) ([3]; 80% RH, 2nd Desorp.): 1.18%
DVS Sorp. (%) ([3]; 80% RH, 2nd Sorp.): 1.17%
DVS Desorp. (%) ([3]; 90% RH, 1st Desorp.): 1.33%
DVS Sorp. (%) ([3]; 90% RH, 1st Sorp.): 1.29%
DVS Desorp. (%) ([3]; 90% RH, 2nd Desorp.): 1.24%
DVS Sorp. (%) ([3]; 90% RH, 2nd Sorp.): 1.22%
DVS Desorp. (%) ([3]; 95% RH, 1st Desorp.): 1.38%
DVS Sorp. (%) ([3]; 95% RH, 1st Sorp.): 1.38%
DVS Desorp. (%) ([3]; 95% RH, 2nd Desorp.): 1.30%
DVS Sorp. (%) ([3]; 95% RH, 2nd Sorp.): 1.30%
Hygroscopicity based on DVS results ([3]; listed as Compound 1, Form B): slightly hygroscopic
XRPD after DVS test ([3]; listed as Compound 1, Form B): no form change
XRPD after heating [4]: change in Form by XRPD
Crystallinity (XRPD & PLM) ([5]; 4 weeks, 25° C./60% RH): Crystalline
Purity ([5]; 4 weeks, 25° C./60% RH): 99.55%
Weight loss (TGA) (~120° C.) ([5]; 4 weeks, 25° C./60% RH): 2.374%
Crystallinity (XRPD & PLM) ([5]; 4 weeks, 40° C./75% RH): Crystalline
Purity ([5]; 4 weeks, 40° C./75% RH): 99.55%
Weight loss (TGA) (~120° C.) ([5]; 4 weeks, 40° C./75% RH): 2.319%
Crystallinity (XRPD & PLM) ([5]; 6 weeks, 25° C./60% RH): Crystalline
Purity ([5]; 6 weeks, 25° C./60% RH): 99.54%
Water content ([5]; 6 weeks, 25° C./60% RH): 3.361%
Weight loss (TGA) (~120° C.) ([5]; 6 weeks, 25° C./60% RH): 2.364%
Crystallinity (XRPD & PLM) ([5]; 6 weeks, 40° C./75% RH): Crystalline
Purity ([5]; 6 weeks, 40° C./75% RH): 99.53%
Water content ([5]; 6 weeks, 40° C./75% RH): 3.301%
Weight loss (TGA) (~120° C.) ([5]; 6 weeks, 40° C./75% RH): 2.276%
Crystallinity (XRPD & PLM) ([5]; 8 weeks, 25° C./60% RH): Crystalline
Purity ([5]; 8 weeks, 25° C./60% RH): 99.54%
Water content ([5]; 8 weeks, 25° C./60% RH): 3.830%
Weight loss (TGA) (~120° C.) ([5]; 8 weeks, 25° C./60% RH): 2.943%
Crystallinity (XRPD & PLM) ([5]; 8 weeks, 40° C./75% RH): Crystalline
Purity ([5]; 8 weeks, 40° C./75% RH): 99.55%
Water content ([5]; 8 weeks, 40° C./75% RH): 3.494%
Weight loss (TGA) (~120° C.) ([5]; 8 weeks, 40° C./75% RH): 3.809%
Crystallinity (XRPD & PLM) ([5]; Initial): Crystalline
Purity ([5]; Initial): 99.54%
Water content ([5]; Initial): 3.677%
Weight loss (TGA) (~120° C.) ([5]; Initial): 2.233%
critical water activity between Form A and Form B (Water activity study; 25° C., methanol/water): less than 0.1
Relative stability of forms (Water activity study; ambient condition): more stable than Form A
Compound: O=C(O)[C@H]1C[C@@H](N2CCc3oc(-c4ccc(OCc5ccc(Cl)cc5)cc4)nc3C2)C1 [Form B, (1s,3s)-3-(2-(4-((4-chlorobenzyl)oxy)phenyl)-6,7-dihydrooxazolo[4,5-c]pyridin-5(4H)-yl)cyclobutane-1-carboxylic acid]
XRPD after storage ([2]; 25° C./97% RH for one week): did not result in changes to material as measured by XRPD; also recorded: Unchanged by XRPD
XRPD after storage ([2]; 40° C./75% RH for one week): did not result in changes to material as measured by XRPD; also recorded: Unchanged by XRPD
Relative thermodynamic stability ([6]; acetic acid mixtures and temperatures investigated): more thermodynamically stable than Form C
Relative thermodynamic stability ([6]; majority of experimental conditions assessed): more thermodynamically stable than Form C
